In patent publication US9512180B2, “Compstatin analogs” (THE REGENTS OF THE UNIVERSITY OF CALIFORNIA, priority 2012, dated 2016):
Values joined by “and” are separate entries in the source; they are usually repeats but may differ in a detail not shown here. Equal values may be shown once. Read-outs that look alike come from different tables or passages of the source. Marks after values point to notes of the source that are not given here. Bridge positions count the residues as written; N and C are the ends. Square brackets hold non-standard residues; d marks the D form. Peptide text beside a SMILES is read from it. Trp(1-Me) = Cn1cc(C[C@H](N)C(=O)O)c2ccccc21

Legend:
[1] = tested on: complement alternative pathway (AP); assay: C5b-9 ELISA (inhibition of C5b-9 terminal complex formation); assay type: biochemical, human
Method: Inhibition of the complement alternative pathway (AP) by compstatin family peptides was assayed by ELISA. Peptides were dissolved in phosphate buffered saline (PBS, 150 mM). Initial peptide concentrations were calculated using the Beer-Lambert Law with an extinction coefficient of 5,500 (1/M·cm) for Trp and 5,470 (1/M·cm) for methylated-Trp present in the sequence, at 280 nm. Nunc Maxisorp 96-well plates were coated with 1 μg lipopolysaccharides (LPS) from Salmonella enteriditis for ˜16 h at room temperature. Plates were washed three times with PBS/0.05% Tween-20 (PBS-T) between each step. Plates were blocked with 4% bovine serum albumin (BSA) in PBS-T for 1 h at 37° C. Serial peptide dilutions were performed in 96-well plates, using gelatin veronal-buffered saline with 5 mM MgCl2 and 10 mM EGTA (GVBS-MgEGTA). Normal human serum (Complement Technology Inc., Tyler, Tex., USA) was diluted in GVBS-MgEGTA and mixed with compstatin serial dilutions to a final concentration of 30%. Serum diluted in GVBS-MgEGTA and GVBS (containing 20 mM EDTA) were used as positive and negative controls for complement activation, respectively. Dilutions were preincubated for 15 minutes at room temperature, transferred to ELISA plates, and incubated for 1 h at 37° C. Generation of C3b and C5b-9 were assayed using horseradish peroxidase (HRP)-conjugated anti-C3 (MP Biomedicals, Solon, Ohio, USA) and anti-05b-9 aEll (Abcam, Cambridge, Mass., USA), respectively. Plates were washed and incubated with either anti-C3-HRP (1:5000 in 1% BSA/PBS-T) or anti-05b-9 (1:1000 in 1% BSA/PBS-T) for 1 h at 37° C. For C5b-9 detection, primary antibody incubation was followed by incubation with anti-mouse-HRP (BioRad, Hercules, Calif., USA) for 1 h at 37° C. (1:5000 in 1% BSA/PBS-T). Bound C3b and C5b-9 were quantified using a 3,3′,5,5′-tetramethylbenzidine substrate solution containing urea hydrogen peroxide in 0.11 M sodium acetate buffer, followed by a 1 N H2SO4 acid stop. Plates were measured spectrophotometrically at 450 nm. Percent inhibition of C3b and C5b-9 deposition was plotted against peptide concentration and the data was fitted to a logistic dose response curve with Prism software (GraphPad, San Diego, Calif., USA) to determine IC50 values.
In all assays, MgEGTA was used to chelate Ca′ ions required for classical/lectin pathway complement activation, while providing Mg′ necessary for AP activation. ELISAs allow for direct detection of C3b and C5b-9 formed during AP activation, while erythrocyte lysis assays provide a functional assessment of AP-mediated hemolysis in serum. […] Table 9 summarizes the IC50 values derived from the three different assays. […] The relative potencies of the peptides, based on the measured ICH values, are consistent across all three assays (Peptide III˜Peptide VI˜Peptide IX>Peptide I>Parent). Based on the assay conditions used in this study, peptides inhibited C5b-9 formation with moderately better efficacy than formation of C3b, while slightly higher concentrations were necessary to inhibit AP-mediated hemolysis.

soluble C5b-9 = assay: Soluble C5b-9 ELISA of the RPE cell-based assay medium; parameters: species or system human; details: peptide 1 μM; for soluble C5b-9 in assay medium relative to positive control: 10% human complement serum, ~24 hrs, mean±S.E.M., three donors; for Assay medium C5b-9 ELISA % of positive control: RPE cell assay medium, Mean (S.E.M.)
Method: The in vitro drusen biogenesis model was employed. Human fetal RPE cells (Advanced Bioscience Resources, Alameda, Calif.) were cultured on Millipore HA porous supports (Millipore, Cat # PIHA 01250) in Miller medium (Maminishkis et al., 2006) supplemented with 5% fetal calf serum (FCS). Cultures derived from three different donor eyes were employed. Cells were rinsed with warm, sterile PBS and the insert membrane was excised with a scalpel and cut into small (˜4 mm^2) pieces which were placed in wells of a 96-well plate. To minimize effects of inter-culture variability, samples prepared from a single membrane were utilized for each experiment. The samples were rinsed in PBS and then exposed individually to the library of compstatin family peptides at 1 μM in FCS-free Miller medium containing 10% human complement serum (Innovative Research, Cat # IPLA-CSER AB, Lot # L12402). In preliminary experiments, compstatin family Peptides I, III, VI, VII, VIII, IX, and Parent (Table 7), were tested in the RPE cell assay at 100 μM and titrated by C5b-9 ELISA over a concentration range of 0.04-130 μM. […] Also from this assessment, Peptide VI, as well as Peptides I and III, were selected for further studies. Peptides I and III were chosen for comparative studies to Peptide VI, because they contain an arginine residue at position 1. The goal was to determine whether peptides containing arginine at position −1 (Peptide VI) or at position 1 (Peptides I and III) were potent complement inhibitors using the RPE cell assay and had improved aqueous solubility compared to previously known potent analogs. Negative control cells were exposed to Miller medium+5% FCS; positive control cells were exposed to Miller medium+10% human complement serum without inhibitory peptides. Experimental and control medium/inhibitor solutions were pre-mixed on a rocker at room temperature for 30 min, then warmed to 37° C., prior to placement on the samples and incubation for ˜24 hrs at 37° C. in a 7.0% CO2 incubator. Following the incubation period, the medium was removed and stored frozen prior to ELISA analysis. The cell/membrane samples were rinsed in PBS, fixed in cold 4% paraformaldehyde (PFA) in PBS for 20 min, and stored in 0.4% PFA until use in immunohistochemical assays.
Soluble C5b-9 ELISA of the RPE Cell-Based Assay Medium.
Experimental medium solutions were diluted 1/625 in assay diluent and quadruplicate ELISAs were performed using an OptEIA C5b-9 ELISA kit (BD Biosciences, Cat #558315). Plates were read at 450 nm, with absorbance at 570 nm subtracted for wavelength correction, on a BioRad Benchmark plate reader. C5b-9 concentrations were calculated using a standard curve generated using purified human C5b-9. Data was expressed as a percentage relative to the positive (human serum only) control. Means and standard errors for data from the three RPE donor cells were calculated and graphed using SigmaPlot 11.0 (Systat Software, San Jose, Calif.), and one-way ANOVA was calculated using Tukey's test for multiple comparisons.

complement activation = details: alternative pathway-mediated erythrocyte lysis; cited from earlier work
complement system = assay: Preliminary ELISA-based complement system inhibition assays, human serum; assay type: biochemical; details: preliminary data
From the text: For some of the peptides studied here, W1, W13, R1, and S-1S0, there is experimental evidence for inhibitory activity against hC3. […] The structural rationale was that the positively charged backbone amino group was disrupting the hydrophobic cluster at the termini (spanning residues 11-C2-V3-V4/C12/T13 of native compstatin), which was deemed necessary for binding and activity before the availability of the structure of the C3c-W4A9 complex, and that upon removal of the positive charge by acetylation the hydrophobic cluster was fortified and contributed to the 3-fold increase in activity. […] The peptide with the diserine extension is expected to be active, as the diserine was present at the N-terminus of the original 32-amino acid peptide that was identified in the phage-display and a subsequent study.

[2] = Table 9, means from three independent experiments, read-out: IC50, C5b-9 ELISA
[3] = table 13, read-out: C5b-9 ELISA IC50

CC[C@H](C)[C@H](N)C(=O)N[C@H]1CSSC[C@@H](C(=O)N[C@H](C(N)=O)[C@@H](C)O)NC(=O)[C@H](CCCN=C(N)N)NC(=O)[C@H](Cc2cnc[nH]2)NC(=O)[C@H](Cc2cnc[nH]2)NC(=O)CNC(=O)[C@H](Cc2c[nH]c3ccccc23)NC(=O)[C@H](CC(=O)O)NC(=O)[C@H](CCC(N)=O)NC(=O)[C@H](C(C)C)NC(=O)[C@H](C(C)C)NC1=O [Parent, ICV VQDWGH HRCT-NH2, reference compound]
inhibition less than other peptides ([1]; C5b-9 inhibition in ELISA, versus Peptides I, III, VI, IX): 10- to 15 fold | IC50 [1, 2]: 18600 nM | IC50 [1, 3]: 18600 nM and 12600 nM | soluble C5b-9 in assay medium relative to positive control (soluble C5b-9): 88.5±0.76% | Assay medium C5b-9 ELISA % of positive control (soluble C5b-9): 88.49 (0.76) % of positive control | IC50 (complement activation): 12000 nM

CC(=O)N[C@@H](CCCNC(=N)N)C(=O)N[C@H]1CSSC[C@@H](C(=O)N[C@H](C(N)=O)[C@@H](C)O)NC(=O)[C@H](CCCNC(=N)N)NC(=O)[C@H](Cc2c[nH]cn2)NC(=O)[C@H](C)NC(=O)CNC(=O)[C@H](Cc2c[nH]c3ccccc23)NC(=O)[C@H](CC(=O)O)NC(=O)[C@H](CCC(N)=O)NC(=O)[C@H](Cc2c[nH]c3ccccc23)NC(=O)[C@H](C(C)C)NC1=O [Peptide I, Ac- RCV WQDWGA HRCT-NH2] (Ac-RCVWQDWGAHRCT-NH2; disulfide 2-12)
inhibitory activity in human serum (in words) (complement system): higher than those of native compstatin and slightly lower than those of the W4A9 analog | IC50 [1, 2]: 2020 nM | IC50 [1, 3]: 1000 nM and 2000 nM | soluble C5b-9 in assay medium relative to positive control (soluble C5b-9): 61.4±2.3% | Assay medium C5b-9 ELISA % of positive control (soluble C5b-9): 61.37 (2.34)^a % of positive control

CC(=O)N[C@@H](CCCNC(=N)N)C(=O)N[C@H]1CSSC[C@@H](C(=O)N[C@H](C(N)=O)[C@@H](C)O)NC(=O)[C@H](CCCNC(=N)N)NC(=O)[C@H](Cc2c[nH]cn2)NC(=O)[C@H](C)NC(=O)CNC(=O)[C@H](Cc2c[nH]c3ccccc23)NC(=O)[C@H](CC(=O)O)NC(=O)[C@H](CCC(N)=O)NC(=O)[C@H](Cc2cn(C)c3ccccc23)NC(=O)[C@H](C(C)C)NC1=O [Peptide III, Ac- RCV meWQDWGA HRCT-NH2] (Ac-RCV[Trp(1-Me)]QDWGAHRCT-NH2; disulfide 2-12)
IC50 [1, 2]: 1070 nM | IC50 [1, 3]: 600 nM and 1100 nM | soluble C5b-9 in assay medium relative to positive control (soluble C5b-9): 50.0±0.8% | Assay medium C5b-9 ELISA % of positive control (soluble C5b-9): 50.02 (0.82) % of positive control

CC[C@H](C)[C@H](NC(=O)[C@H](CO)NC(=O)[C@H](CCCNC(=N)N)NC(C)=O)C(=O)N[C@H]1CSSC[C@@H](C(=O)N[C@H](C(N)=O)[C@@H](C)O)NC(=O)[C@H](CCCNC(=N)N)NC(=O)[C@H](Cc2c[nH]cn2)NC(=O)[C@H](C)NC(=O)CNC(=O)[C@H](Cc2c[nH]c3ccccc23)NC(=O)[C@H](CC(=O)O)NC(=O)[C@H](CCC(N)=O)NC(=O)[C@H](Cc2cn(C)c3ccccc23)NC(=O)[C@H](C(C)C)NC1=O [Peptide VI, Ac-RS-ICV meWQDWGA HRCT-NH2]
IC50 [1, 2]: 1130 nM | IC50 [1, 3]: 600 nM and 1100 nM | soluble C5b-9 in assay medium relative to positive control (soluble C5b-9): 44.6±3.2% | Assay medium C5b-9 ELISA % of positive control (soluble C5b-9): 44.60 (3.16) % of positive control
